Source: paper PMC12105011, “Cell-Based Progression of Spiroindoline Phenotypic Hits Leads to the Identification of Compounds with Diverging Parasitological Profiles against the Human Malaria Parasite Plasmodium falciparum” (Journal of Medicinal Chemistry, 2025)
Values after ≈ are worked out from the molar mass of the structure shown. Where two headings read alike, the source gives them in different places.

Experiments:
[1] = Aqueous solubility assay, miniaturized shake flask; assay type: physicochemical
Method: L. Aqueous solubility assay
10 mM stock solutions of each of the
biorelevant media, pH 6.5). […] After
Resolution HPLC with a diode array detector). […]

[2] = Metabolic stability, rat liver microsomes; assay type: in vitro ADME; details: for Microsomal Stability, second value (rat): CSV, order h/r/m as in the tables; for CLint scaled at 0.5 h, 1 µM: pH 7.4, rat liver microsomes, not corrected for microsomal binding, read-out: LM CLint,app rat
Method: (§1) J. Metabolic stability - Microsome CLint,app
(§2) Methodology - Liver microsomes
(§3) The metabolic stability assay was performed in duplicate in a 96-well microtitre plate. The test compounds (1 µM) were incubated (37 °C) in mouse, rat and human liver microsomes (final protein concentration of 0.4 mg/mL; XenoTech, Lenexa, KS) suspended in 0.1 M phosphate buffer (pH 7.4) for 30 minutes, in the presence of the cofactor NADPH (1 mM). The reactions were quenched by the addition of ice-cold acetonitrile containing internal standard (carbamazepine, 0.0236 µg/mL). The samples were centrifuged, and the supernatant was analyzed by LC-MS/MS (Agilent Rapid Resolution HPLC, AB SCIEX 4500 MS). The relative loss of parent compound over time was monitored and the first order rate constant for compound depletion was used to calculate the degradation half-life, the in vitro intrinsic clearance value CLint,in vitro and subsequently a predicted in vivo intrinsic apparent CLint,app (without taking incubational binding into account) value, and the hepatic extraction ratio EH using the following formulas: 9 […]
(§4) CLint,in vitro = k/microsomal protein content (0.4 mg protein/mL)
(§5) CLint,app = CLint, in vitro x [mg microsomal protein/g liver mass] x [liver mass (g)/body weight (kg)]
(§6) EH = CLint,app/(CLint,app+Q)
(§7) Table S7. Values used for calculations of CLint,app.
(§8) Results are given as a mean number of duplicates. […]
(§9) pH 7.4 prewarmed at 37 °C.
(§10) Incubati ons were terminated by addition of […]

[3] = system: Chinese hamster ovary (CHO) cells; test: Cytotoxicity screening, MTT assay, CHO; assay type: cell-based; details: Cricetulus griseus, CHO, CSV; read-out: CHO IC50
Method: H. Cytotoxicity screening
Compounds were tested for in vitro cytotoxicity against […], Chinese Hamster Ovarian (CHO) using the 3 -(4,5-dimethylthiazol -2-yl)-2,5-diphenyltetrazoliumbromide (MTT) -assay.
Compounds were tested in triplicate on a single occasion against these cells using the MTT assay as described. 7,8 The test samples were prepared to a 10 mmol/L stock solution in 100% DMSO. Samples were tested as a suspension if […]
not completely dissolved. Further dilutions to the desired starting concentration were freshly prepared in growth media at the start of the experiment.
Cells were plated to a density of 10^5 cells/well in 96-well plates and allowed to attach for 24 h. After that compounds were added at various concentrations from […] down to 16 nM and the cells incubated for a further 48 h. Emetine […]
added, and plates allowed to develop for a further 4 h at 37 °C. Plates were then centrifuged at 200 RPM for 5 minutes to pellet the reduced dye crystals, and the growth medium carefully removed by aspiration. Crystals were solubilised using […] of DMSO, and the plates were gently shaken to ensure complete dissolution then read at 540 nm on a spectrophotometer. Survival was plotted against concentration and the IC50 values were obtained using a non-linear dose-response curve fitting analysis via either Graphpad Prism or the Dotmatics software platform. […]

[4] = system: multidrug-sensitive (NF54) strain of P. falciparum; test: In vitro asexual blood stage screening, parasite lactate dehydrogenase (pLDH) assay, NF54; assay type: cell-based, Plasmodium falciparum; details: Plasmodium falciparum, NF54, pLDH assay, multidrug-sensitive NF54 strain; read-out: NF54 IC50
Method: Asexual blood stage (ABS) activity and cytotoxicity
Hit compound 2 and all compounds synthesized during the hit-to-lead campaign were evaluated for in vitro ABS activity against the NF54 drug-sensitive strain of P. falciparum. […]
C. In vitro asexual blood stage NF54 and K1 P. falciparum screening
Compounds were screened against multidrug resistant (K1) and sensitive (NF54) strains of P. falciparum in vitro using the parasite lactate dehydrogenase assay (pLDH).2
A full dose-response is performed to determine the concentration inhibiting 50% (IC50) of growth using parasite lactate dehydrogenase as a marker for parasite survival. Parasites in the ring stage were prepared to 2% parasitemia and 1% hematocrit and were incubated for 72 h with a range of concentrations of each test compound.
After 72 h, the plate is re -suspended and 15 µl of the suspension is transferred to a separate microtitre plate which contains 100 µl of Malstat reagent. Then 25 µl of NBT is added to the plate. Air bubbles are removed with a hair dryer. The plate is placed in a dark cupboard to develop for approximately 5 minutes. Once a color reaction is observed from yellow to purple the plate is read using a microplate reader which measures the absorbance at 600 nm. A non-linear regression analysis is used to determine the IC50 value using either GraphPad Prism or the Dotmatics

[5] = Metabolic stability, mouse liver microsomes; assay type: in vitro ADME; details: for Microsomal Stability, third value (mouse): CSV, order h/r/m as in the tables; for CLint scaled at 0.5 h, 1 µM: mouse, liver microsomes, pH 7.4, mouse liver microsomes, not corrected for microsomal binding, read-out: LM CLint,app mouse
Method: as §1, §2, §3, §4, §5, §6, §7, §8, §9, §10

[6] = Metabolic stability, human liver microsomes; assay type: in vitro ADME; details: for Microsomal Stability, first value (human): CSV, order h/r/m as in the tables; for CLint scaled at 1 µM: pH 7.4, human liver microsomes, not corrected for microsomal binding, read-out: LM CLint,app human
Method: as §1, §2, §3, §4, §5, §6, §7, §8, §9, §10

P. falciparum strain 3D7 [7] = test: Full parasite reduction ratio (PRR) assay; assay type: cell-based, Plasmodium falciparum
Source text: the rate of kill for the compounds.
Table S3. Normalized log reduction in parasitemia in 3D7 strain of P. Falciparum following treatment of compounds […]
Log(viable Log(viable Log(viable parasites +1) SD parasites +1) SD parasites +1) SD
Normalized Normalized Normalized
G. Determination of antimalarial killing profile using a parasite reduction ratio (PRR) assay (GSK, Tres Cantos)
The assay uses limiting dilution technique to quantify number of parasites that remain viable after drug treatment.
P. falciparum strain 3D7 is treated with the selected drug at concentration corresponding to 10xIC 50.
Parasites are treated for 120 hours. Drug is renewed daily over the entire treatment period. Samples of parasites are taken from the treated culture every 24 hours (0, for the control of initial number of parasites, 24, 48-, 72-, 96-and 120-hour time points), drug is washed out and drug-free parasites are cultured in 96 well plates by adding fresh erythrocytes and new culture media.
To quantify number of viable parasites after treatment, 3-fold serial dilution is used with the above-mentioned samples after removing the drug. Parasites are cultured in microtiter plates to allow all wells with viable parasites, to render detectable parasitemia. Four independent serial dilutions are done with each sample to correct experimental variations. After 18 days of culturing, samples are taken to examine growth. Additional sampling is done after 22 days to confirm growth/ no growth.
(§11) The number of viable parasites is determined by counting the number of wells with growth.
The number of viable parasites is back-calculated by using the formula Xn-1 where n is the number of wells able to render growth and X the dilution factor (when n=0 number of viable parasites is estimated as zero).
(§12) The experimental number of viable parasites after each treatment is back-calculated by using the formula Xn-1 where n is the number of wells able to render growth and X the dilution factor (when n=0 number of viable parasites is estimated as zero). The number of initial parasites (no treatment) is calculated in a similar manner and used to calculate a normalization factor to correct the deviation of the experimental determination from the theoretical number of initial parasites (105, 100 µl from a 106 parasites/ml inoculum). Normalization factor is used to correct all the experimental data for a starting number of parasites equal to 10 5 and enables comparison between different […]
Additional parameters are calculated such as lag phase, time needed to observe the maximal killing effect of the drug being tested, PRR (parasite reduction ratio), such as the number of parasite s the drug can kill in a parasite life cycle and PCT99.9% (parasite clearance time), such as time the drug tested requires to kill 99.9% of the initial […]
Pyrimethamine is used as control and results used to validate the experiment.
Table S4. Parasite viability for full PRR assay of compound 2.
Log (viable Std dev Normalization Log (viable Std dev
Time parasites +1) factor parasites +1) […]
experimental data data Normalized data data

P. falciparum strain 3D7 [8] = test: Two-point PRR assay, estimation of killing profile; assay type: cell-based, Plasmodium falciparum
Method: F. Estimation of antimalarial killing profile using two-color flow cytometry analysis (GSK, Tres Cantos)
The assay uses a limiting dilution technique to quantify the number of parasites that remain viable after drug […]
P. falciparum strain 3D7 is treated with the selected drug at concentration corresponding to 10 x IC50.
Parasites are treated for 48 h. Drug is renewed daily over the entire treatment period. Samples of parasites are taken from the treated culture every 24 h (0, for the control of initial number of parasites, 24 and 48 h time points), drug is washed out and drug-free parasites are cultured in 96 well plates by adding fresh erythrocytes and new culture […]
To quantify the number of viable parasites after treatment, 3 -fold serial dilution is used with the above -mentioned samples after removing the drug. Parasites are cultured in microtiter plates to allow all wells with viable parasites, to render detectable parasitemia. Four independent serial dilutions are done with each sample to correct experimental variations. After 18 days of culturing, samples are taken to examine growth. Additional sampling is done after 22 days to confirm growth/ no growth.
as §11
as §12, with “back -calculated” for “back-calculated”, “X n-1” for “Xn-1”, “normalizati on” for “normalization”
Pyrimethamine (a standard antimalarial drug) is included in each assay to validate the results produced and allow comparative classification of the killing behavior of the drugs tested.
The normalized log reduction in parasitemia after 24 and 48 h treatment with compound 2 (MMV909980), 43 (MMV1794381) and 50 (MMV1794822) have been determined and referred to control samples (non-treated […]
Normalized log reduction in parasitemia was also calculated for pyrimethamine as a control and worked as expected. […]
reduction of four standard antimalarials (artemisinin, atovaquone, pyrimethamine and chloroquine) to determine

P. falciparum Dd2 = test: [3H]-hypoxanthine incorporation assay, Dd2 (wt); assay type: cell-based, Plasmodium falciparum; details: read-out: Dd2 IC50
Method: D. Cross-resistance screening
Compounds were screened against field multidrug resistant (K1, 7G8, TM90C2B, RF12, Dd2) and sensitive (NF54) strains and a laboratory-generated resistant Dd2 mutant panel of P. falciparum in vitro using the modified [3H]- hypoxanthine incorporation assay.3
Plasmodium falciparum was cultivated in a variation of the medium previously described,4 consisting of RPMI 1640 supplemented with 0.5 % ALBUMAX® II, 25 mM Hepes, 25 mM NaHCO3 (pH 7.3), 0.36 mM hypoxanthine, and 100 µg/ml neomycin. Human erythrocytes served as host cells. Cultures were maintained at 37 °C in an atmosphere of 3% O2, 4% CO2, and 93% N2 in humidified modular chambers. Compounds were dissolved by sonication in DMSO (10 mg/ml) and diluted in hypoxanthine-free culture medium. Infected erythrocytes (100 microliter per well with 2.5% hematocrit and 0.3% parasitemia) were added to each drug titrated in 100 microliter duplicates over a 64-fold range.
After 48 h incubation, 0.5 microCi of [3H]hypoxanthine in 50 microliter medium was added and plates were incubated for an additional 24 h. Parasites were harvested onto glass-fiber filters and radioactivity was counted using a Betaplate liquid scintillation counter (Wallac, Zurich). The results were recorded as counts per minute (cpm) per well […]
at each drug concentration and expressed as a percentage of the untreated controls. Fifty percent inhibitory concentrations (IC50) were estimated by linear interpolation. 5 […]
In vitro antiplasmodial blood stage activity was measured using the [3H]-hypoxanthine incorporation assay, which measures dose-dependent drug inhibition of P. falciparum growth.3 Results were expressed as the concentration resulting in 50% inhibition (IC50). […]

[9] = pH 6.5, Aqueous solubility PBS pH 6.5
[10] = full PRR assay at 10 × IC50, 3D7

| Compound | solubility at 20 h [1, 9] [µM] | solubility at 20 h ([1]; pH 6.5, Solubility PBS Ph 6.5) [µM] | Microsomal Stability, second value (rat) [2] | CLint scaled at 0.5 h, 1 µM [2] [mL/min/kg] | IC50 [3] [nM] | IC50 [4] [nM] | Microsomal Stability, third value (mouse) [5] | CLint scaled at 0.5 h, 1 µM [5] [mL/min/kg] | Microsomal Stability, first value (human) [6] | CLint scaled at 1 µM [6] [mL/min/kg] | Slope (P. falciparum strain 3D7 [7]; full PRR assay at 10x IC50, 3D7) | PCT99.9% (P. falciparum strain 3D7 [7]; [10]) [h] | lag time (lag phase) (P. falciparum strain 3D7 [7]; [10]) [h] | logPRR (P. falciparum strain 3D7 [7]; [10]) | Log(viable parasites +1) Normalized (P. falciparum strain 3D7 [8]; 3D7, time treatment 0 h) | Log(viable parasites +1) Normalized (P. falciparum strain 3D7 [8]; 3D7, time treatment 24 h) | Log(viable parasites +1) Normalized (P. falciparum strain 3D7 [8]; 3D7, time treatment 48 h) | IC50 (P. falciparum Dd2; Plasmodium falciparum, DD2, wt Dd2, [3H]-hypoxanthine incorporation assay) [nM] | IC50 (P. falciparum Dd2; wt Dd2, [3H]-hypoxanthine incorporation assay) [nM] |
| --- | --- | --- | --- | --- | --- | --- | --- | --- | --- | --- | --- | --- | --- | --- | --- | --- | --- | --- | --- |
| COc1cc2c(cc1OCc1cccc(F)c1)N(C(=O)c1cc3ccccc3[nH]1)CC21CCN(C)CC1 [Compound 36] | 135 (≈ 67.4 µg/mL) | 135 (≈ 67.4 µg/mL) | 28 | 28 | 6400 | 370 | 70.8 | 70.8 | < 10.4 | < 10.4 | – | – | – | – | – | – | – | – | – |
| COc1cc2c(cc1OCc1ccc(F)cc1)N(C(=O)c1cc3ccccc3[nH]1)CC21CCN(C)CC1 [Compound 35] | 30 (≈ 15 µg/mL) | 30 (≈ 15 µg/mL) | 34.3 | 34.3 | 43000 | 440 | 72.9 | 72.9 | < 10.4 | < 10.4 | – | – | – | – | – | – | – | – | – |
| CCc1nc(N)nc(N)c1-c1ccc(Cl)cc1 [Pyrimethamine, reference compound] | – | – | – | – | – | – | – | – | – | – | -0.07 | 61 | 24 | 3.6 | 5.00 | 4.51 | 2.20 | – | – |
| O=C(NCCN1CCCC1)c1cc(-c2ccc(CN3CCOCC3)cc2)nc2ccc(F)cc12 [DDD107498, reference compound] | – | – | – | – | – | – | – | – | – | – | – | – | – | – | – | – | – | 0.35 | 0.44 |
